The record followed here is patent publication US11389415B2, “Methods of regulating cannabinoid receptor activity-related disorders and diseases” (The United States of America as represented by the …, priority 2012, dated 2022).

Molecules are shown by their SMILES. “Also recorded” adds a separate entry of the source.

What all share (assay type): cell-based, human
One assay relates to U87MG cells. Put plainly: [3H]-Thymidine incorporation in U87MG cells. To be noted: compound alone. As for the experimental part: (§1) Maintenance and Treatment of Cell Lines. Human HepG2 hepatocarcinoma cells and human U87MG glioma cells (ATCC, Manassas, Va.) were maintained in EMEM medium supplemented with 1% L-glutamine, 1% sodium pyruvate, 1% penicillin/streptomycin, and 10% FBS (Hyclone, Logan, Utah). The human 1321N1 astrocytoma cells (European Collection of Cell Cultures, Sigma-Aldrich) were cultured in Dulbecco's modified Eagle's medium supplemented with 10% FBS and penicillin/streptomycin. All cell lines were cultured at 37° C. in 5% CO2, and the medium was replaced every 2-3 days.
(§2) Cells were seeded in 12-well plates at approximately 50,000 cells/well and incubated at 37° C. After 24 hours, the wells were rinsed with PBS and replaced with serum-free medium containing the appropriate concentration of the test compounds. After another 24-hour incubation at 37° C., 1 μCi of [^3H]-thymidine was added to each well and incubated at 37° C. for 16 hours. [^3H]-Thymidine incorporation into DNA was monitored after the cells were washed twice with PBS and then lysed in 600 μL of 0.1N NaOH for 30 minutes with shaking. The lysate was then mixed with 3 mL of liquid scintillation cocktail (Beckman Coulter, Inc., Brea, Calif.), and radioactivity was measured by liquid scintillation counting using Beckman Coulter LS6000IC Scintillation Counter. Data are shown as CPM incorporated compared to the control cells.
(Incorporation of labelled thymidine or its analogues reports DNA synthesis.)

The next assay relates to Akt and ERK1/2. In words: phosphorylation of Akt and ERK1/2 in HepG2 cells (Western blot). To be noted: 1 μM, 5, 10 and 30 minutes. On the technique in general: In western blotting, separated proteins are transferred to a membrane and probed.
Assay [1] concerns HepG2 cells. Put plainly: [3H]-Thymidine incorporation assay in HepG2 cells. As for the experimental part:
as §1, §2

Assay [2] has as its system HepG2 cells. Put plainly: Apoptosis assay (annexin V/PI flow cytometry) in HepG2 cells. The settings on record: HepG2, 1 μM, 24 hours. As for the experimental part:
Apoptosis Assay. The degree of apoptosis induced by drug treatment was assayed by flow cytometry using the Alexa Fluor® 488 annexin V/Dead Cell Apoptosis Kit (Invitrogen) following the standard manufacturer's protocol. […] Cells were subsequently harvested after a 24-hour incubation, washed in cold PBS, and resuspended in 100 μL of 1× annexin-binding buffer to maintain a density˜1×10^6 cells/mL, after which 5 μL Alexa Fluor® 488 annexin V and 1 μL 100 μg/mL propidium iodide were added to the cell suspensions. Cells were then incubated at room temperature for 15 minutes and 400 μL 1× annexin-binding buffer was added followed by gentle mixing. Stained cells were analyzed on a BDFACSCanto II flow cytometer.
For orientation: Flow cytometry measures light scatter and fluorescence of single cells or particles in a stream.

The test system of the next assay is 1321N1 cells. Put plainly: Mitogenesis / [3H]-thymidine incorporation in 1321N1 cells. To be noted: compound alone. As for the experimental part:
as §1
as §2, with “[^3H]-Thymidine Incorporation Assay. Cells” for “Cells”

The test system of assay [3] is HepG2 cells. In words: cAMP accumulation in HepG2 cells. The settings on record: β-agonists at 10 μM. As for the experimental part:
cAMP Accumulation. HepG2 cells were seeded in 96-well plates and grown to confluency. […] The levels of cAMP accumulated in cells were determined and normalized to the amount of protein per well.

The test system of assay [4] is HepG2 cells. Put plainly: Cell cycle analysis by flow cytometry in HepG2 cells. To be noted: HepG2, 1 μM, up to 24 hours. As for the experimental part: Cell Cycle Analysis. Cell cycle distributions were performed by flow cytometry on propidium iodide-stained nuclei prepared by the NIM technique. DNA histograms of at least 10,000 cells acquired on a Becton-Dickinson FACScanto II (BD Biosciences, San Jose, Calif.) were deconvoluted using the Multicycle program (Phoenix Flow Systems) for estimates of the percentage of cells in the G0/1, S, and G2+M phases of the cell cycle. Debris and doublets were removed from the analysis by software algorithms.

Description for Akt and ERK1/2: Western Blotting. Cells were lysed with RIPA buffer containing EGTA and EDTA (Boston BioProducts, Ashland, Mass.). The lysis buffer was mixed with a protease inhibitor cocktail (Sigma-Aldrich). Protein concentrations were measured using the bicinchoninic acid reagent (Thermo-Pierce Biotechnology, Inc., Rockford, Ill.). […] Western blots were performed according to standard methods. The visualization of immunoreactive bands was performed using the ECL Plus Western Blotting Detection System (GE Healthcare, NJ) and their quantification was done by volume densitometry using Image J software and normalization to β-actin. […] The antibodies were used at a dilution recommended by the manufacturer.

As for `C[C@H](Cc1ccc(O)cc1)NC[C@H](O)c1cc(O)cc(O)c1` [(R,R′)-Fen, (R,R′)-Fenoterol], the “effect on cellular proliferation” value with U87MG cells was “had no effect”. Also, the “Akt and ERK activation” value with Akt and ERK1/2 is “induced a time-dependent increase in Akt and ERK activation”. The “% Change in HepG2 cells ([3H]-thymidine incorporation)” value in the assay on HepG2 cells [1] (1 μM, 24 h) worked out at 51.3%. Besides, the EC50 in the assay on HepG2 cells [1] (Homo sapiens, HepG2, read-out: IC50/EC50 (μM): EC50 (ED50) for increase in [3H]-thymidine incorporation) is 1.17 ± 0.37 µM. Also, the “apoptosis compared to control” value in the assay with HepG2 cells [2] is reported as “markedly reduced apoptosis”. The “effect on proliferation / [3H]-thymidine incorporation” value with 1321N1 cells is “reduced proliferation in 1321N1 cells”. Also, the “cAMP production” value with HepG2 cells [3] is “Neither (R)-isoproterenol nor (R,R′)-Fen, at 10 μM, elicited an increase in cAMP production”. For the same compound, the “cell cycle / sub-G1 events” value in the assay on HepG2 cells [4] was “no significant alterations of the cell cycle; also recorded: No significant increase in sub-G1 events”.
